Reference: patent US11345912B2, “Directed evolution of multivalent glycopeptides that tightly bind to target proteins” (Brandeis University, priority 2013, dated 2022)

Target: 2G12
Assay: BioLayer Interferometry (BLI) of 2G12 binding to surface-immobilized synthetic glycopeptide
Conditions: Table 6; evaluated by BLI, material prepared synthetically
Protocol: Biotinylation of 10F2 glycopeptide and determination of 2G12 binding by BLI (BioLayer Interferometry): 200 μg 10F2 glycopeptide in 5.5 μL water was treated with […] of 50 mM TCEP.HCl/1M Tris-HCl buffer, pH 7.8, under argon, using the same inert gas setup employed in the click procedure. After 4.5 h, the reaction mixture was injected into HPLC (Waters Symmetry, 300 C4, 5 μm, 4.6×250 mm, 1 mL/min, 2-42% over 60 min, retention time 46.8 min).
The 2G12 binding of the resulting biotinylated glycopeptide 3 was determined using a BLItz instrument (Fortebio). Biotin-10F2 was loaded (120 sec) onto a streptavidin biosensor as a 500 nM solution in Buffer 1 (20 mM Tris pH 7.5, 150 mM NaCl, 2 mM MgSO4, 0.20 mg/mL BSA, 0.02% Tween-20). The sensor was washed with Buffer 1 for 60 sec, after which time the net response due to loading was observed as 0.2 nm. The sensor was then equilibrated with Buffer 2 (20 mM Tris pH 7.5, 150 mM NaCl, 2 mM MgSO4, 2.0 mg/mL BSA, 0.1% v/v Tween-20) for 90 sec. 2G12 (prepared in Buffer 2) was associated at several concentrations (0.5, 1, 2, 4, 8, 16, 32 nM, in random order) for 600 sec, followed by dissociation into blank Buffer 2 for 600 sec. […]

| SMILES | Kd [nM] |
| --- | --- |
| CC[C@H](C)[C@H](NC(=O)[C@@H](NC(=O)[C@@H](NC(=O)[C@H](Cc1c[nH]cn1)NC(=O)[C@H](CC(N)=O)NC(=O)[C@H](CC(=O)O)NC(=O)[C@H](CCc1cn(C2CCC(OC3O[C@H](CO[C@H]4O[C@H](CO[C@H]5O[C@H](CO)[C@@H](O)[C@H](O)[C@@H]5O[C@H]5O[C@H](CO)[C@@H](O)[C@H](O)[C@@H]5O)[C@@H](O)[C@H](O[C@H]5O[C@H](CO)[C@@H](O)[C@H](O)[C@@H]5O[C@H]5O[C@H](CO)[C@@H](O)[C@H](O)[C@@H]5O)[C@@H]4O)[C@@H](O)[C@H](O[C@H]4O[C@H](CO)[C@@H](O)[C@H](O)[C@@H]4O[C@H]4O[C@H](CO)[C@@H](O)[C@H](O)[C@@H]4O[C@H]4O[C@H](CO)[C@@H](O)[C@H](O)[C@@H]4O)[C@@H]3O)CC2)nn1)NC(=O)[C@@H](NC(=O)[C@H](CCCCN)NC(=O)[C@H](CCC(=O)O)NC(=O)[C@H](CCCNC(=N)N)NC(=O)[C@H](CCCCN)NC(=O)[C@H](C)NC(=O)[C@H](CC(N)=O)NC(=O)[C@@H](NC(=O)[C@H](CCCCN)NC(=O)[C@@H](NC(=O)[C@H](C)NC(=O)[C@H](CCc1cn(C2CCC(OC3O[C@H](CO[C@H]4O[C@H](CO[C@H]5O[C@H](CO)[C@@H](O)[C@H](O)[C@@H]5O[C@H]5O[C@H](CO)[C@@H](O)[C@H](O)[C@@H]5O)[C@@H](O)[C@H](O[C@H]5O[C@H](CO)[C@@H](O)[C@H](O)[C@@H]5O[C@H]5O[C@H](CO)[C@@H](O)[C@H](O)[C@@H]5O)[C@@H]4O)[C@@H](O)[C@H](O[C@H]4O[C@H](CO)[C@@H](O)[C@H](O)[C@@H]4O[C@H]4O[C@H](CO)[C@@H](O)[C@H](O)[C@@H]4O[C@H]4O[C@H](CO)[C@@H](O)[C@H](O)[C@@H]4O)[C@@H]3O)CC2)nn1)NC=O)[C@@H](C)O)[C@@H](C)O)[C@@H](C)O)C(C)C)[C@@H](C)O)C(=O)N[C@@H](CCc1cn(C2CCC(OC3O[C@H](CO[C@H]4O[C@H](CO[C@H]5O[C@H](CO)[C@@H](O)[C@H](O)[C@@H]5O[C@H]5O[C@H](CO)[C@@H](O)[C@H](O)[C@@H]5O)[C@@H](O)[C@H](O[C@H]5O[C@H](CO)[C@@H](O)[C@H](O)[C@@H]5O[C@H]5O[C@H](CO)[C@@H](O)[C@H](O)[C@@H]5O)[C@@H]4O)[C@@H](O)[C@H](O[C@H]4O[C@H](CO)[C@@H](O)[C@H](O)[C@@H]4O[C@H]4O[C@H](CO)[C@@H](O)[C@H](O)[C@@H]4O[C@H]4O[C@H](CO)[C@@H](O)[C@H](O)[C@@H]4O)[C@@H]3O)CC2)nn1)C(=O)N[C@@H](CCCNC(=N)N)C(=O)N[C@@H](CO)C(=O)N[C@H](C(=O)N1CCC[C@H]1C(=O)N[C@@H](Cc1c[nH]c2ccccc12)C(=O)N[C@@H](Cc1ccc(O)cc1)C(=O)N[C@H](C(=O)N[C@@H](Cc1ccc(O)cc1)C(=O)N[C@@H](CCCNC(=N)N)C(=O)N[C@@H](Cc1c[nH]c2ccccc12)C(=O)N[C@@H](CC(C)C)C(=O)N1CCC[C@H]1C(=O)N[C@@H](CC(N)=O)C(=O)NCC(=O)N[C@@H](CO)C(=O)NCC(=O)N[C@@H](CO)C(=O)NCC(=O)N[C@@H](CSC1CC(=O)N(CCC(=O)NCCOCCOCCNC(=O)CCCC[C@@H]2SC[C@@H]3NC(=O)N[C@@H]32)C1=O)C(=O)N[C@@H](C)C(=O)O)[C@@H](C)O)[C@@H](C)CC (some centres unmarked) [Clone 10V1-C7A, XATKTNAKREKTXDNHVTIXRSIPWYTYRWLPN] | 4.4 |
| CC[C@H](C)[C@H](NC(=O)[C@@H](NC(=O)[C@@H](NC(=O)[C@H](Cc1c[nH]cn1)NC(=O)[C@H](CC(N)=O)NC(=O)[C@H](CC(=O)O)NC(=O)[C@H](CCc1cn(C2CCC(OC3O[C@H](CO[C@H]4O[C@H](CO[C@H]5O[C@H](CO)[C@@H](O)[C@H](O)[C@@H]5O[C@H]5O[C@H](CO)[C@@H](O)[C@H](O)[C@@H]5O)[C@@H](O)[C@H](O[C@H]5O[C@H](CO)[C@@H](O)[C@H](O)[C@@H]5O[C@H]5O[C@H](CO)[C@@H](O)[C@H](O)[C@@H]5O)[C@@H]4O)[C@@H](O)[C@H](O[C@H]4O[C@H](CO)[C@@H](O)[C@H](O)[C@@H]4O[C@H]4O[C@H](CO)[C@@H](O)[C@H](O)[C@@H]4O[C@H]4O[C@H](CO)[C@@H](O)[C@H](O)[C@@H]4O)[C@@H]3O)CC2)nn1)NC(=O)[C@@H](NC(=O)[C@H](CCCCN)NC(=O)[C@H](CCC(=O)O)NC(=O)[C@H](CCCNC(=N)N)NC(=O)[C@H](CCCCN)NC(=O)[C@H](CO)NC(=O)[C@H](CC(N)=O)NC(=O)[C@@H](NC(=O)[C@H](CCCCN)NC(=O)[C@@H](NC(=O)[C@H](C)NC(=O)[C@H](CCc1cn(C2CCC(OC3O[C@H](CO[C@H]4O[C@H](CO[C@H]5O[C@H](CO)[C@@H](O)[C@H](O)[C@@H]5O[C@H]5O[C@H](CO)[C@@H](O)[C@H](O)[C@@H]5O)[C@@H](O)[C@H](O[C@H]5O[C@H](CO)[C@@H](O)[C@H](O)[C@@H]5O[C@H]5O[C@H](CO)[C@@H](O)[C@H](O)[C@@H]5O)[C@@H]4O)[C@@H](O)[C@H](O[C@H]4O[C@H](CO)[C@@H](O)[C@H](O)[C@@H]4O[C@H]4O[C@H](CO)[C@@H](O)[C@H](O)[C@@H]4O[C@H]4O[C@H](CO)[C@@H](O)[C@H](O)[C@@H]4O)[C@@H]3O)CC2)nn1)NC=O)[C@@H](C)O)[C@@H](C)O)[C@@H](C)O)C(C)C)[C@@H](C)O)C(=O)N[C@@H](CCc1cn(C2CCC(OC3O[C@H](CO[C@H]4O[C@H](CO[C@H]5O[C@H](CO)[C@@H](O)[C@H](O)[C@@H]5O[C@H]5O[C@H](CO)[C@@H](O)[C@H](O)[C@@H]5O)[C@@H](O)[C@H](O[C@H]5O[C@H](CO)[C@@H](O)[C@H](O)[C@@H]5O[C@H]5O[C@H](CO)[C@@H](O)[C@H](O)[C@@H]5O)[C@@H]4O)[C@@H](O)[C@H](O[C@H]4O[C@H](CO)[C@@H](O)[C@H](O)[C@@H]4O[C@H]4O[C@H](CO)[C@@H](O)[C@H](O)[C@@H]4O[C@H]4O[C@H](CO)[C@@H](O)[C@H](O)[C@@H]4O)[C@@H]3O)CC2)nn1)C(=O)N[C@@H](CCCNC(=N)N)C(=O)N[C@@H](CO)C(=O)N[C@H](C(=O)N1CCC[C@H]1C(=O)N[C@@H](Cc1c[nH]c2ccccc12)C(=O)N[C@@H](Cc1ccc(O)cc1)C(=O)N[C@H](C(=O)N[C@@H](Cc1ccc(O)cc1)C(=O)N[C@@H](CCCNC(=N)N)C(=O)N[C@@H](Cc1c[nH]c2ccccc12)C(=O)N[C@@H](CC(C)C)C(=O)N1CCC[C@H]1C(=O)N[C@@H](CC(N)=O)C(=O)NCC(=O)N[C@@H](CO)C(=O)NCC(=O)N[C@@H](CO)C(=O)NCC(=O)N[C@@H](CS)C(=O)N[C@@H](C)C(=O)O)[C@@H](C)O)[C@@H](C)CC (some centres unmarked) [Clone 10V1-C7S, XATKTNSKREKTXDNHVTIXRSIPWYTYRWLPN] | 5.6 |
